The values that follow come from US8148400B2, “Thiazolyl compounds useful as kinase inhibitors” (Bristol-Myers Squibb Company, priority 2006, dated 2012).

The target in this assay is IGF1-receptor (Homo sapiens, UniProt P08069). The assay is described as follows: IGF1-Receptor Tyrosine Kinase Assay. It counts as biochemical. To be noted: ATP 25 μM; FL-peptide 1.5 μM; IGF1-Receptor 14 nM; 60 min room temperature; read-out: IGF-1R IC50. On the procedure:
D. IGF1-Receptor Tyrosine Kinase Assay
The assays were performed in U-bottom 384-well plates. The final assay volume was 30 μl prepared from 15 μl additions of enzyme and substrates (fluoresceinated IGF1R substrate peptide and ATP) and test compounds in assay buffer (100 mM HEPES pH 7.4, 10 mM MnCl2, 0.015% Brij35 and 4 mM DTT). The reaction was initiated by the combination of IGF1-receptor with substrates and test compounds. The reaction was incubated at room temperature for 60 min. and terminated by adding 30 μl of 35 mM EDTA to each sample. The reaction mixture was analyzed on the Caliper LabChip 3000 by electrophoretic separation of the fluorescent substrate and phosphorylated product. Inhibition data were calculated by comparison to no enzyme control reactions for 100% inhibition and vehicle-only reactions for 0% inhibition. The final concentration of reagents in the assays is ATP, 25 μM; FL-peptide, 1.5 μM; IGF1-Receptor, 14 nM; and DMSO, 1.6%. Dose response curves were generated to determine the concentration required to inhibit 50% of kinase activity (IC50). Compounds were dissolved at 10 mM in dimethylsulfoxide (DMSO) and evaluated at eleven concentrations, each in duplicate. IC50 values were derived by non-linear regression analysis.

Structures can show the parent of a compound that is named as a salt.

IGF1-receptor, sequence (P08069 31-1367): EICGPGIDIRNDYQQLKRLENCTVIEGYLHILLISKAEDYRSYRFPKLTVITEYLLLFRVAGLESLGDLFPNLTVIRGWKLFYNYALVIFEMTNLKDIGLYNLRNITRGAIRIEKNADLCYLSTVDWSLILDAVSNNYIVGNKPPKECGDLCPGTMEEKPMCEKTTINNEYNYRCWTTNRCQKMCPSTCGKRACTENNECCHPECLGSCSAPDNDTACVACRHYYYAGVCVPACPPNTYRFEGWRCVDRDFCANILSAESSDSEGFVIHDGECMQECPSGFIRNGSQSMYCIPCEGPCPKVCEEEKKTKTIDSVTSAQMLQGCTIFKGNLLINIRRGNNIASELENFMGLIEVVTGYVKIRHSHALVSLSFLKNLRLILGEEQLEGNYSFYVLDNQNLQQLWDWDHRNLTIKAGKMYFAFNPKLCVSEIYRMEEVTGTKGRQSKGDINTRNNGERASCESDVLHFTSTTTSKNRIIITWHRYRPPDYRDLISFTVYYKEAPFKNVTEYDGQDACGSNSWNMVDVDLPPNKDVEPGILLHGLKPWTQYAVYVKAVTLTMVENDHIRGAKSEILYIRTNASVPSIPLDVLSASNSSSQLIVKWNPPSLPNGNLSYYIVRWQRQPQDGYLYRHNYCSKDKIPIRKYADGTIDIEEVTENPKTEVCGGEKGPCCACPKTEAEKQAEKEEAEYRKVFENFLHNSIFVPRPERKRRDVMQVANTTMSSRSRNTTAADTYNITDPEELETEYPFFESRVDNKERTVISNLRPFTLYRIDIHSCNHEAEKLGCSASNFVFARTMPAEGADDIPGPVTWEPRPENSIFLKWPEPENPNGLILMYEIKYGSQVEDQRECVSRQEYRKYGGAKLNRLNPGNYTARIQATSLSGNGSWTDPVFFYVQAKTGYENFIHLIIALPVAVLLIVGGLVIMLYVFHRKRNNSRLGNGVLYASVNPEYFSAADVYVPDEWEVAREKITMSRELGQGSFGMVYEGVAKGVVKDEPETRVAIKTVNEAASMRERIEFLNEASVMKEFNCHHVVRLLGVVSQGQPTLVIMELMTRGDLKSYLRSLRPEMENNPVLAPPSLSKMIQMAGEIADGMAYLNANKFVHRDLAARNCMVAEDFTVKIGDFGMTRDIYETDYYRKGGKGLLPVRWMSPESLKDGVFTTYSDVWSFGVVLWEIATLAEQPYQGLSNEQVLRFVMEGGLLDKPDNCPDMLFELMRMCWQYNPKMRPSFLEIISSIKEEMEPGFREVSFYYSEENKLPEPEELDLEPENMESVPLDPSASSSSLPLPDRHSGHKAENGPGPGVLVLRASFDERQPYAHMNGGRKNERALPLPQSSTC

For `O=C(NCCc1c[nH]c2ccc(O)cc12)c1nccc(Sc2cnc(Nc3ccccn3)s2)c1F` [Example 33, 3-Fluoro-N-(2-(5-hydroxy-1H-indol-3-yl)ethyl)-4-(2-(pyridin-2-ylamino)thiazol-5-ylthio)picolinamide], the IC50 – broadly, the point on the concentration scale where inhibition reaches its midpoint – came out at 0.693 µM.
Consider `CC(C)(C)CNCC(CNC(=O)c1nccc(Sc2cnc(Nc3ccccn3)s2)c1F)(c1ccccc1)c1ccccc1` [Example 36, 3-Fluoro-N-(3-(neopentylamino)-2,2-diphenylpropyl)-4-(2-(pyridin-2-ylamino)thiazol-5-ylthio)picolinamide], for which the IC50 amounted to 2.95 µM.
Take `Cc1ccnc(Nc2ncc(Sc3ccnc(C(=O)NCC(CN4CCCCC4)(c4ccccc4)c4ccccc4)c3F)s2)c1` [Example 49, N-(2,2-diphenyl-3-(piperidin-1-yl)propyl)-3-fluoro-4-(2-(4-methylpyridin-2-ylamino)thiazol-5-ylthio)picolinamide]: the concentration for half-maximal inhibition (IC50) turned out to be 0.886 µM.
The same measure for `Cc1ccnc(Nc2ncc(Sc3ccnc(C(=O)NCC(CN(C)CCO)(c4ccccc4)c4ccccc4)c3F)s2)c1` [Example 52, 3-Fluoro-N-(3-((2-hydroxyethyl)(methyl)amino)-2,2-diphenylpropyl)-4-(2-(4-methylpyridin-2-ylamino)thiazol-5-ylthio)picolinamide]: 0.003 µM; for `Cc1ccnc(Nc2ncc(Sc3ccnc(C(=O)NCC(CNC(C)(C)C)(c4ccccc4)c4ccccc4)c3F)s2)c1` [Example 55, N-(3-(tert-butylamino)-2,2-diphenylpropyl)-3-fluoro-4-(2-(4-methylpyridin-2-ylamino)thiazol-5-ylthio)picolinamide]: 0.199 µM; for `Cc1ccnc(Nc2ncc(Sc3ccnc(C(=O)NCC(c4ccccc4)c4ccccc4C)c3F)s2)c1` (stereo not drawn) [Example 56, 3-fluoro-4-(2-(4-methylpyridin-2-ylamino)thiazol-5-ylthio)-N-(2-phenyl-2-o-tolylethyl)picolinamide]: 0.891 µM.
The same measure for `Cc1ccnc(Nc2ncc(Sc3ccnc(C(=O)NCC(c4ccccc4)c4ccccc4Br)c3F)s2)c1` (stereo not drawn) [Example 58, N-(2-(2-bromophenyl)-2-phenylethyl)-3-fluoro-4-(2-(4-methylpyridin-2-ylamino)thiazol-5-ylthio)picolinamide]: 1.52 µM; for `O=C(NCC(c1ccccc1)c1ccccc1CO)c1nccc(Sc2cnc(Nc3ccccn3)s2)c1F` (stereo not drawn) [Example 63, 3-Fluoro-N-(2-(2-(hydroxymethyl)phenyl)-2-phenylethyl)-4-(2-(pyridin-2-ylamino)thiazol-5-ylthio)picolinamide]: 0.25 µM.
The same measure for `Cc1ccnc(Nc2ncc(Sc3ccnc(C(=O)NCC(c4ccccc4)c4ccccc4CO)c3F)s2)c1` (stereo not drawn) [Example 65, 3-Fluoro-N-(2-(2-(hydroxymethyl)phenyl)-2-phenylethyl)-4-(2-(4-methylpyridin-2-ylamino)thiazol-5-ylthio)picolinamide]: 0.001 µM.
Consider `Cc1ccnc(Nc2ncc(Sc3ccnc(C(=O)NCC(c4ccccc4)c4cccc(CO)c4)c3F)s2)c1` (stereo not drawn) [Example 67, 3-Fluoro-N-(2-(3-(hydroxymethyl)phenyl)-2-phenylethyl)-4-(2-(4-methylpyridin-2-ylamino)thiazol-5-ylthio)picolinamide hydrochloride], for which the half-maximal inhibitory concentration (IC50) turned out to be 0.288 µM.
The same measure for `CCNCC(CNC(=O)c1nccc(Sc2cnc(Nc3cc(C)ccn3)s2)c1F)(c1ccccc1)c1ccccc1` [Example 69, N-(3-(ethylamino)-2,2-diphenylpropyl)-3-fluoro-4-(2-(4-methylpyridin-2-ylamino)thiazol-5-ylthio)picolinamide]: 0.005 µM; for `CCCC(O)(CNC(=O)c1nccc(Sc2cnc(Nc3ccc(CNC(=O)CN(C)C)cn3)s2)c1F)c1ccccc1` (stereo not drawn) [Example 77, 4-(2-(5-((2-(Dimethylamino)acetamido)methyl)pyridin-2-ylamino)thiazol-5-ylthio)-3-fluoro-N-(2-hydroxy-2-phenylpentyl)picolinamide]: 0.004 µM; for `CCCC(O)(CNC(=O)c1nccc(Sc2cnc(Nc3ccc(CNC)cn3)s2)c1F)c1ccccc1` (stereo not drawn) [Example 82, 3-Fluoro-N-(2-hydroxy-2-phenylpentyl)-4-(2-(5-((methylamino)methyl)pyridin-2-ylamino)thiazol-5-ylthio)picolinamide]: 0.003 µM.
Turning to `CCC[C@@](O)(CNC(=O)c1nccc(Sc2cnc(Nc3nccc4sccc34)s2)c1F)c1ccccc1` [Example 83, (S)-3-fluoro-N-(2-hydroxy-2-phenylpentyl)-4-(2-(thieno[3,2-c]pyridin-4-ylamino)thiazol-5-ylthio)picolinamide], the concentration for half-maximal inhibition (IC50) was determined as 0.394 µM.
Turning to “(S)-3-Fluoro-N-(2-(2-(hydroxymethyl)phenyl)-2-phenylethyl)-4-(2-(pyridin-2-ylamino)thiazol-5-ylthio)picolinamide and (R)-3-fluoro-N-(2-(2-(hydroxymethyl)phenyl)-2-phenylethyl)-4-(2-(pyridin-2-ylamino)thiazol-5-ylthio)picolinamide [Example 64]”, the IC50 amounted to 0.316 µM.
